A melting point compilation (Tetko et al.; mined from patent text by program, amines drawn as free bases though some values may be those of a salt)

| melting point [°C] | SMILES |
| --- | --- |
| 109 | CCCn1cnc2c1c(=O)n(CC(C)(O)C#CCN(CC)CC)c(=O)n2C (configuration not stated) |
| 260 to 263 | O=S1(=O)N=CNc2ccc(F)cc21 |
| 230 to 234 | Cc1cc(C(O)C[N+](=O)[O-])cc(C)c1Oc1ccc([N+](=O)[O-])c(Nc2ccc(C#N)cc2)n1 (configuration not stated) |
| 221 to 223 | CCOC(=O)c1cnc2cc([N+](=O)[O-])ccc2n1 |
| 113 | COc1cc(C(=O)c2ccccn2)cc([N+](=O)[O-])c1OC |
| 56 | CC(C)NCC(O)COc1ccc(OCCOCC2CCC2)cc1 (configuration not stated) |
| 252 | O=C(O)c1c(Cc2ccccc2)nc2c(C(F)(F)F)cccc2c1O |
| 79 | CC(C)NC(=O)C(=O)c1ccc(Cl)cc1 |
| 238 to 242 | Nc1ncnc2c1ncn2Cc1oc2ccc(Br)cc2c(=O)c1-c1ccc(F)cc1 |
| 130 to 132 | CCOP(=O)(OCC)C(C)NC(=O)c1cc(C)cc(OC)c1C1=CC(=O)c2c(O)cccc2C1=O (configuration not stated) |
| 310 to 311 | N#Cc1cc(C(=O)c2ccncc2)ccc1O |
| > 250 | Cc1ccsc1-c1ccc(C(C)(N)C(=O)O)cc1 (configuration not stated) |
| 218 to 220 | CC(c1oc2ccccc2c(=O)c1-c1cccc(F)c1)n1nc(-c2cccc(N(C)C)c2)c2c(N)ncnc21 (configuration not stated) |
| 201 to 205 | Cc1ccc(NCc2ccc(/C=C/C(=O)NO)cc2)cc1Nc1nccc(-c2cccnc2)n1 |
| 147 to 148 | C=CCN1C(=O)C2CCc3c(ccc(OC)c3OC)C2C1=O (configuration not stated) |
| 155 | CCOC(=O)C1=C2NCCN2C(C)=C(C(C)=O)C1c1cccc([N+](=O)[O-])c1 (configuration not stated) |
| 160 to 162 | CNS(=O)(=O)Cc1ccc2[nH]cc(C3CCN(C)C3)c2c1 (configuration not stated) |
| 96 to 98 | O=C(NC1CCN(C(=O)CCCC2(C(=O)NCC(F)(F)F)c3ccccc3-c3ccccc32)CC1)c1ccccc1Oc1ccccc1 |
| 206 | CCCC(CNc1cc(Cl)ccc1C(=O)O)C(=O)O (configuration not stated) |
| 190 to 192 | COc1ccc(C(=O)Nc2c(C)c(C)c3c(c2C)C(c2ccccc2)C(C)(C)O3)cc1 (configuration not stated) |
| 69 to 70 | CCCCCc1c(C(C)=O)nc(C(C)C)c(CO)c1-c1ccc(F)cc1 |
| 116 to 117 | CCOC(=O)c1cn(Cc2ccccc2)nc1N(Cc1ccccc1)C(=O)Nc1ccccc1 |
| 91 to 93 | CC(=O)n1ncc2c(OCc3ccccc3)cc(C)cc21 |
| 143 to 144 | O=C1NN(c2ccccc2)CC1CN1CCOCC1 (configuration not stated) |
| 192 to 195 | C=CCc1c(-c2ccc(S(C)(=O)=O)cc2)cnn(CC(F)(F)F)c1=O |
| 110 | OC[C@@H]1CCCN1c1nc2ccccc2s1 |

| melting point [°C] | SMILES |
| --- | --- |
| 150 | C=CCn1c(C)nc2c3c(c(C(=O)OCC)cc21)CCC1(Cc2ccccc2C1)N3 |
| 193 to 196 | CCCCCCCCCCCCCCCCNc1ccc(C(=O)NS(=O)(=O)c2ccc(N)cc2)cc1 |
| 109 to 111 | N#CN1CCC(C2c3ccccc3NN2c2ccccc2Cl)CC1 (configuration not stated) |
| 70 to 72 | CCOC(=O)c1cnnn1C[C@@H]1CN(c2ccc(N3CCC(=CC#N)CC3)c(F)c2)C(=O)O1 |
| 190 | N#CSCC(I)=C(I)CSC#N |
| 61 to 62 | COc1cc(OC)nc(-c2ccc(C)cc2)n1 |
| 230 to 232 | CC(C)Cn1cnc2c(N)nc3cccnc3c21 |
| 145 to 149 | OC(CCCN1CCc2c(c3cc(F)ccc3n2-c2ccc(F)cc2)C1)c1ccc(F)cc1 (configuration not stated) |
| 208 to 212 | COc1ccc2c(c1)c(Cc1nc(-c3cccc(Br)c3)cs1)c(C)n2C(=O)c1ccc(Cl)cc1 |
| 74 to 78 | O=c1ccnc(NCCCN(Cc2cccc(Cl)c2)c2ccccn2)[nH]1 |
| 201 to 203 | Cc1ccc(-n2nc(-c3ccc(O)cc3)c3cccnc32)cc1 |
| 57.6 | c1cnc(NCCCNCC2CCc3ccc4c(c3O2)CCCC4)nc1 (configuration not stated) |
| 240 | CCCC(=O)Nc1n[nH]c2c(F)c(N3CCOCC3)c(Br)cc12 |
| 135 to 138 | COc1ccc2c(-c3ccccc3F)noc2c1I |
| 117 to 118 | CC(NC(=O)c1ccc(Cl)cc1)c1cccc2ccccc12 (configuration not stated) |
| 161 to 162 | CCOCc1nc2c(N)nc3cc(N4CCOCC4)ccc3c2n1CCCOC(C)C |
| 127 to 130 | CC(C)c1nc(COC(N)=O)n(Cc2ccccn2)c1Sc1cc(Cl)cc(Cl)c1 |
| 174 to 175 | COc1cc(C[C@@H](NC(C)=O)C(=O)O)ccc1OC(C)=O |
| 134 to 136 | CCOC(=O)c1cc(Cl)n2nc(C)nc2n1 |
| 116 to 118 | CS(=O)Cc1ccc(C(=O)c2ccc(Cl)cc2)cc1 (configuration not stated) |
| 140 to 158 | CNC(=O)c1ccccc1Nc1nc(Nc2ccc3c(c2)CCN(C(C)C)CC3)ncc1Cl |
| 44.3 to 45 | COc1cccc2c1CC=CC2 |
| 183 to 184 | CCCn1nc2c(N)nc3ccccc3c2c1CCCc1cc(C)no1 |
| 142 | CCOc1nc(N)nc2sc(-c3ccc(F)cc3)cc12 |
| 188 to 189 | COC(=O)c1ccc(NN=CC(=O)OCCC#N)cc1S(N)(=O)=O |
| 213 to 215 | CSc1ccc(-c2nc(SC)c(C#N)c(=O)n2-c2ccc(Br)cc2)cc1 |

| melting point [°C] | SMILES |
| --- | --- |
| 147 to 150 | Nc1ccc(-n2ncnc2-c2ccc(F)cc2)cc1 |
| 174 to 175 | COC(=O)ONC(=N)Nc1ccc(C(=O)O)cc1 |
| 65 to 67 | CN(C)[C@H]1CC[C@H](NC(=O)OC(C)(C)C)C1 |
| 194 | N#CCC(=O)N[C@H]1CC[C@H](CCN2CCC(c3cccc4c3CCO4)CC2)CC1 |
| 79.5 to 84 | CNc1nc(SCc2ccc(OC)cc2)nc(N2CCOCC2)c1N |
| > 260 | O=C(Nc1ccc2[nH]c(=O)[nH]c2c1)C(=O)N1CCC(Cc2ccc(F)cc2)CC1 |
| 168 to 169 | CCCCOc1cc2ccc(C(=O)O)cc2cc1OCCCC |
| 152 to 153 | Cc1cc(C)cc(COC(=O)C(Cc2c[nH]c3ccccc23)NC(=O)OC(C)(C)C)c1 (configuration not stated) |
| 139 to 142 | O=C(c1ccccc1)c1ccc(NC(=O)C(O)(C(F)F)C(F)F)cc1 |
| 104 to 105 | O=C1c2ccc(Cl)cc2CC1(F)Br (configuration not stated) |
| 107 to 109 | COc1cc(Br)ccc1Oc1ccccc1O |
| 236 to 238 | CC(=O)OC1CC2=CC(=NO)C3C4CCCC4(C)CCC3C2(C)C(OC(C)=O)C1 (configuration not stated) |
| 94 to 95 | CCOC(=O)C(CC(N)=O)(C(=O)OCC)n1cccc1 |
| 148 | CCC(c1ccc(C(O)(C(F)(F)F)C(F)(F)F)cc1)S(=O)(=O)c1ccccc1 (configuration not stated) |
| 202 | CCOC(=O)c1cn(CC)c2nc(N3CCCC3)ncc2c1=O |
| > 320 | Cc1nccc2[nH]c(=O)c(O)cc12 |
| 87 to 90 | COC(=O)c1ccc(CBr)c(OC)c1 |
| 165 | COc1ccc2c(c1)C=C(C(=O)NCCCCN1CCN(c3ccccc3OC)CC1)CO2 |
| 77 to 79 | CC(C)(C)NC(=O)C(C)(C)N(OC(C)(C)C#N)C(C)(C)C |
| 99 to 104 | CC(=O)c1ccc(OC2CCOCC2)cc1O |
| 107 to 109 | S=c1nc2ccccn2c(=S)n1-c1ccccn1 |
| 154 to 156 | CCOC(=O)C(=CNCc1cnsn1)C(=O)c1cc(F)c(F)c(F)c1F |
| 91 to 96 | COc1ccccc1Cn1c(=O)c2c(N3CCN(C)CC3)cc(Cl)cc2n(Cc2ccccc2)c1=O |
| 165 | O=C(NN1CCCCC1)c1nc(-c2ccc(Cl)cc2Cl)c(-c2ccc(Cl)cc2)o1 |
| 143 | O=C(O)C1(CSc2ccc(Oc3ccc(Br)cc3)cc2)CCOCC1 |
| 120 to 122 | OCc1cccc2c1SC(c1ccccc1)=CC2 |

| melting point [°C] | SMILES |
| --- | --- |
| 184 to 186 | O=c1c2cc(F)c(F)cc2n(-c2ccc(F)c(Cl)c2)c(=O)n1OCc1ccccc1 |
| 161 to 162 | CC(C)(C)C(=O)OCn1cnc2c(OCc3ccccc3)nc(N)nc21 |
| 115 to 117 | Cc1cccc(C(=O)C=CC(=O)O)c1 |
| 234 to 239 | Cc1c(F)cc(C(=O)NC(C)C(C)C)cc1-c1ccc(C(=O)NCC(C)(C)C)cc1C(=O)Nc1nccs1 (configuration not stated) |
| 162 to 163 | FC(F)C(F)(F)Sc1nc(-c2ccc(Cl)cc2)c(-c2cccs2)[nH]1 |
| 152 | Cc1c([N+](=O)[O-])c(=O)n(C)c(=O)n1C |
| 145 | CC(C)N(C)C(=O)NS(=O)(=O)c1cc(-n2c(=O)cc(C(F)(F)F)n(C)c2=O)c(F)cc1Cl |
| 290 to 300 | O=C(O)C1=Cc2cc(Br)ccc2S(=O)(=O)CC1 |
| 246 to 248 | O=S(=O)(c1ccc(O)cc1)c1ccc(-c2ccccc2)cc1 |
| 141 | CSc1ccc(-c2nn(Cc3ccccc3)c(=O)cc2-c2ccc(F)cc2)cc1 |
| 377 to 378 | O=c1c2ccc(Cl)cc2[nH]c2c(=O)n(CCO)nc(O)c12 |
| 105 to 107 | CS(=O)(=O)Oc1ccc(-c2sc3cc(OS(C)(=O)=O)ccc3c2C(=O)c2ccc(OCCBr)cc2)cc1 |
| 149 to 152 | O=C(NCC(F)(F)F)c1nn(-c2ccc(F)cc2F)c2c1C1CCC2C1 (configuration not stated) |
| 191 to 193 | CS(=O)(=O)c1ccc(C(CC2CCCC2)C(=O)Nc2ccc(C(=O)O)cn2)cc1 (configuration not stated) |
| 150 to 152 | Cc1cc(NC(=O)N(C)C)no1 |
| 218 to 220 | CC(C)(C)OC(=O)N1CCN(Cc2ccc3c(c2)-c2[nH]nc(-c4ccsc4)c2C3)CC1 |
| 120 to 122 | CN(C)C1CCCN(C(=O)c2ccc(N)cc2)c2ccccc21 (configuration not stated) |
| 150 to 153 | CC(=NOCCOc1ccc(CC2SC(=O)NC2=O)cc1)c1cncc(-c2ccccc2)c1 (configuration not stated) |
| 60.6 | OCC(O)Cc1ccc(Br)cc1 (configuration not stated) |
| 158 to 160 | CC(C)OC12NC(=O)C(C)(C(C)C)N1C(=O)c1cccnc12 (configuration not stated) |
| 138 to 139 | COC(=O)c1ccc(NC(=O)c2ccccc2Cc2ccccc2)cc1 |
| 161 to 162 | COc1ccc(C(=O)c2cccc(F)c2F)c(O)c1Cl |
| 45.7 | CC1(C)C(C=C2C(C(F)(F)F)C2(F)F)C1C(=O)O (configuration not stated) |

| SMILES | melting point [°C] |
| --- | --- |
| C=C(CC1(CC(=C)C(=O)OC(C)(C)C)C(=O)N(C)C(=O)N(C)C1=O)C(=O)OC(C)(C)C | 90 to 91 |
